Assay results taken from US20020064500A1, “Radiotracers for in vivo study of acetylcholinesterase and alzheimer's disease” (priority 1999, published 2002).

Key:
acetylcholinesterase [1] = target: acetylcholinesterase (Homo sapiens, UniProt P22303); assay: PET imaging of acetylcholinesterase in a human brain, with and without ARICEPT; conditions: for Normalized uptake (nCi/ccBRAIN/nCi/ccPLASMA): healthy human subject, i.v., PET, average of scans after 42 minutes; for Normalized uptake post 5 mg ARICEPT (nCi/ccBRAIN/nCi/ccPLASMA): same subject, 3 hours after oral 5 mg ARICEPT tablet
Sequence of acetylcholinesterase (Homo sapiens, UniProt P22303) (P22303 32-614): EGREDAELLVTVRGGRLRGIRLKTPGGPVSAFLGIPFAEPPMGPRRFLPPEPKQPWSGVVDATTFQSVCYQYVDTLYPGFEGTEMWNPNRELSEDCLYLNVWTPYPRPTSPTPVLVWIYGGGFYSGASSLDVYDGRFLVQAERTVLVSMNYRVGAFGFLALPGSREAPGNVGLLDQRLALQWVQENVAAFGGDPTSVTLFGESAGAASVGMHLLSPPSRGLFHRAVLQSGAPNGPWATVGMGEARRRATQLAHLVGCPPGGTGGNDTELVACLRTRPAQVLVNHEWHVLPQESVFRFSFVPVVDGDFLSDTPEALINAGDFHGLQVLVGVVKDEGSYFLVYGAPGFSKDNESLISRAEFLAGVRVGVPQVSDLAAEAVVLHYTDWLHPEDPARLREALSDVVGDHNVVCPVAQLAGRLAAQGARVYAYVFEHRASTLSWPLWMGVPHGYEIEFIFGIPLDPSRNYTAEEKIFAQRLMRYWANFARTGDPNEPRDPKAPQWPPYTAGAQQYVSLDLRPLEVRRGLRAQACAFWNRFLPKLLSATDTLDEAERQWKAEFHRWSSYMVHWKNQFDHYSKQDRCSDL
Method: The same imaging study was then performed.
A thermoplastic mask was used for PET positioning. Use of a thermoplastic mask is routine for PET studies to help immobilize the head and to provide spacial facial landmarks. To produce a brain image, PETwas begun, and 25 scans were obtained in 90 minutes. After each scan, heated venous blood samples were withdrawn from the back of the patient's hand, to measure the amount of the radiolabeled compound in the blood, in units of nCi/cc blood. The brain images were used to calculate nCi/ccBRAIN for each scan. The average of the ratio (nCi/ccBRAIN/nCi/ccPLASMA)control (i.e., tissue radioactivity/plasma radioactivity or nanocurries per cubic centimeter of brain tissue divided by nanocurries per cubic centimeter of blood), over the scans collected after 42 minutes, for each area of the brain, are shown in Table 1.
Brain images and brain time radioactivity curves were obtained in the same manner as above and the average nCi/ccBRAIN/nCi/ccPLASMA ratio was calculated for each area the brain.

acetylcholinesterase [2] = target: T1, acetylcholinesterase (Mus musculus, UniProt P21836); assay: Kinetic experiment: regional brain biodistribution in mice; type: in vivo, male Charles River mice (CD-1); conditions: for percentage of the administered dose/gram of brain tissue (%ID/g): 5 minutes post i.v. injection, mean of 3
T1 construct: from tissue; host or cells: brain regions of CD-1 mice after intravenous injection
T1 sequence (P21836 32-614): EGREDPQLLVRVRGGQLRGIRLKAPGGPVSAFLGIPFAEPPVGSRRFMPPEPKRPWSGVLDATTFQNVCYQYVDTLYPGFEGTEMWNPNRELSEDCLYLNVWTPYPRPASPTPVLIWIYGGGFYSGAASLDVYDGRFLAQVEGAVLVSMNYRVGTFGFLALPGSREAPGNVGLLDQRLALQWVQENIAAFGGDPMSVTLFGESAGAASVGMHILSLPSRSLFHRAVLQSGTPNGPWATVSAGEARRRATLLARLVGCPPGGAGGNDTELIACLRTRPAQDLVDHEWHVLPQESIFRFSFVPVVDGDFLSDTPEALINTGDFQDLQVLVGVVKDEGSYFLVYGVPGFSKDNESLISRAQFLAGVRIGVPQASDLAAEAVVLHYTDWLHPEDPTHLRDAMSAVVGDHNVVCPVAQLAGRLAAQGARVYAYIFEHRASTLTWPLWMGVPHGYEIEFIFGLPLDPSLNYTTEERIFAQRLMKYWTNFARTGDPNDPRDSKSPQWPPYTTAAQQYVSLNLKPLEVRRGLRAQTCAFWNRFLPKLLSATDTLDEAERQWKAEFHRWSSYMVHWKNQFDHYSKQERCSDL
Method: 21 male Charles River mice (CD-1) were divided into 7 groups of 3 mice each. Each mouse was injected via a tail vein with approximately 350 μCi of compound II (10 μg). Each mouse was sacrificed by cervical dislocation at the following times post injection: group 1 at 5 minutes; group 2 at 15 minutes; group 3 at 30 minutes; group 4 at 45 minutes; group 5 at 60; group 6 at 90 minutes; and group 7 at 120 minutes. At the time of sacrifice of a particular group, the brains of each mouse were quickly removed and dissected on ice. The following regions were collected weighed and assayed for radioactivity: cerebellum, hippocampus, striatum, parietal cortex, thalamus. The following values, averaged over each group of three mice, for the percentage of the administered dose of compound II/gram of brain tissue (%ID/g), were found in the following brain regions at five minutes post injection: striatum (6.19% injected dose/gram tissue); thalamus (4.76%); cortex (4.01%); cerebellum (3.76%); and hippocampus (3.41%).

acetylcholinesterase [3] = target: T1, acetylcholinesterase; assay: Dose response experiment: blocking of compound II brain binding by compound III in mice; type: in vivo; conditions: 5 minutes before compound II i.v.
Method: Male Charles River mice (CD-1) were divided into 5 groups of 3 mice each. Non-radiolabeled compound III was administered to each mouse in increasing doses as follows: group1, saline controls; group 2, 0.01 mg/kg; group 3, 0.1 mg/kg; group 4, 0.3 mg/kg; and group 5,1 mg/kg. Five minutes after the injection with compound III or the saline control, each mouse was administered compound II (421 μCi, 8 μg) by intravenous injection as above. Each mouse was sacrificed by cervical dislocation and brain tissue dissected and the radioactivity of each brain region assayed as described above. The values, averaged over each group of three mice, for the percentage of the administered dose of compound II/gram of brain tissue at each dosage of compound III for each brain region were calculated (FIG. 4 below).

[11CH3]N1C(=O)Cc2cc3c(CCC4CCN(Cc5ccccc5)CC4)noc3cc21 [compound II, 5,7-dihydro-7-[^11C]-methyl-3-[2-[1-(phenylmethyl)4-piperidinyl]ethyl]-6H-pyrrolo[3,2-f]-1,2-benzisoxazole-6-one]
Normalized uptake (nCi/ccBRAIN/nCi/ccPLASMA) (acetylcholinesterase [1]; Caudate): 54 nCi/ccBRAIN/nCi/ccPLASMA
Normalized uptake post 5 mg ARICEPT (nCi/ccBRAIN/nCi/ccPLASMA) (acetylcholinesterase [1]; Caudate): 19 nCi/ccBRAIN/nCi/ccPLASMA
Normalized uptake (nCi/ccBRAIN/nCi/ccPLASMA) (acetylcholinesterase [1]; Cerebellum): 47 nCi/ccBRAIN/nCi/ccPLASMA
Normalized uptake post 5 mg ARICEPT (nCi/ccBRAIN/nCi/ccPLASMA) (acetylcholinesterase [1]; Cerebellum): 13 nCi/ccBRAIN/nCi/ccPLASMA
Normalized uptake (nCi/ccBRAIN/nCi/ccPLASMA) (acetylcholinesterase [1]; Frontal cortex): 26 nCi/ccBRAIN/nCi/ccPLASMA
Normalized uptake post 5 mg ARICEPT (nCi/ccBRAIN/nCi/ccPLASMA) (acetylcholinesterase [1]; Frontal cortex): 7 nCi/ccBRAIN/nCi/ccPLASMA
Normalized uptake (nCi/ccBRAIN/nCi/ccPLASMA) (acetylcholinesterase [1]; Hippocampus): 30 nCi/ccBRAIN/nCi/ccPLASMA
Normalized uptake (nCi/ccBRAIN/nCi/ccPLASMA) (acetylcholinesterase [1]; Medulla Oblongata): 40 nCi/ccBRAIN/nCi/ccPLASMA
Normalized uptake (nCi/ccBRAIN/nCi/ccPLASMA) (acetylcholinesterase [1]; Occipital cortex): 23 nCi/ccBRAIN/nCi/ccPLASMA
Normalized uptake (nCi/ccBRAIN/nCi/ccPLASMA) (acetylcholinesterase [1]; Parietal cortex): 27 nCi/ccBRAIN/nCi/ccPLASMA
Normalized uptake post 5 mg ARICEPT (nCi/ccBRAIN/nCi/ccPLASMA) (acetylcholinesterase [1]; Parietal cortex): 7 nCi/ccBRAIN/nCi/ccPLASMA
Normalized uptake (nCi/ccBRAIN/nCi/ccPLASMA) (acetylcholinesterase [1]; Pons): 36 nCi/ccBRAIN/nCi/ccPLASMA
Normalized uptake (nCi/ccBRAIN/nCi/ccPLASMA) (acetylcholinesterase [1]; Putamen): 61 nCi/ccBRAIN/nCi/ccPLASMA
Normalized uptake post 5 mg ARICEPT (nCi/ccBRAIN/nCi/ccPLASMA) (acetylcholinesterase [1]; Putamen): 26 nCi/ccBRAIN/nCi/ccPLASMA
Normalized uptake (nCi/ccBRAIN/nCi/ccPLASMA) (acetylcholinesterase [1]; Temporal cortex): 26 nCi/ccBRAIN/nCi/ccPLASMA
Normalized uptake (nCi/ccBRAIN/nCi/ccPLASMA) (acetylcholinesterase [1]; Thalamus): 33 nCi/ccBRAIN/nCi/ccPLASMA
highest specific binding defined as striatum-cerebellum (acetylcholinesterase [2]; 30 minutes post i.v. injection): 4.33%
percentage of the administered dose/gram of brain tissue (%ID/g) (acetylcholinesterase [2]; cerebellum): 3.76%
percentage of the administered dose/gram of brain tissue (%ID/g) (acetylcholinesterase [2]; cortex): 4.01%
percentage of the administered dose/gram of brain tissue (%ID/g) (acetylcholinesterase [2]; hippocampus): 3.41%
percentage of the administered dose/gram of brain tissue (%ID/g) (acetylcholinesterase [2]; striatum): 6.19 % injected dose/gram tissue
percentage of the administered dose/gram of brain tissue (%ID/g) (acetylcholinesterase [2]; thalamus): 4.76%

O=C1Cc2cc3c(CCC4CCN(Cc5ccccc5)CC4)noc3cc2N1 [compound III, 5,7-dihydro-3-[2-[1-(phenylmethyl)-4-piperidinyl]ethyl]-6H-pyrrolo[3,2-f]-1,2-benzisoxazole-6-one]
reduction of compound II binding in striatum relative to the saline control (acetylcholinesterase [3]; compound III 0.1 mg/kg): 6%
reduction of compound II binding in striatum relative to the saline control (acetylcholinesterase [3]; compound III 0.3 mg/kg): 20%
reduction of compound II binding in striatum relative to the saline control (acetylcholinesterase [3]; compound III 1 mg/kg): 52%
